For 17 molecules, IC50 results are on record in US8530470B2, “Chromenone derivatives” (Astrazeneca AB, priority 2011, dated 2013).

For one test, the target named is PI3Kδ (Homo sapiens, UniProt O00329). As to the kind of experiment: In vitro enzyme inhibition assay (Kinase Glo), PI3Kδ. It counts as biochemical. The following applies: Test (a). As for the experimental part: (§1) (a) In Vitro Enzyme Inhibition Assay
(§2) The inhibition of PI3Kβ, PI3Kα, PI3Kγ and PI3Kδ was evaluated in a Kinase Glo based enzyme activity assay using human recombinant enzymes. The assay measures depletion of ATP after incubation with enzyme, PIP2 and ATP plus compound. ATP at the end of the reaction is detected by addition of Kinase Glo reagent, in this the Ultra Glo™ luciferase (Promega) uses the ATP as a substrate to catalyze the mono-oxygenation of luciferin and the generation of light. A direct relationship exists between the luminescence measured with the Kinase-Glo Plus Reagent and the amount of ATP remaining in a completed kinase reaction and luminescence is inversely related to kinase activity. Twelve different compound concentrations were tested and raw data from the inhibition of PI3Kβ, PI3Kα, PI3Kγ and PI3Kδ was plotted versus inhibitor concentration.
(§3) Compounds in 100% DMSO were added to assay plates by acoustic dispensing. PI3β was added in a Tris buffer (50 mM Tris pH7.4, 0.05% CHAPS, 2.1 mM DTT, and 10 mM MgCl2) and allowed to preincubate with compound for 20 min prior to addition of substrate solution containing PIP2 and ATP. The enzyme reaction was stopped after 80 min by the addition of Kinase Glo detection solution. […] The final concentration of DMSO, ATP and PIP2 in the assay were, 1%, 8 μM, and 80 μM respectively.
(§4) IC50 values were calculated using a log curve fitting to a non-linear regression package, fitting raw data to inhibitor concentration.
(Kinase-Glo reads ATP consumption through a luciferase reaction.)

Another test addresses PI3Kβ (Homo sapiens, UniProt P42338). As to the kind of experiment: In vitro enzyme inhibition assay (Kinase Glo), PI3Kβ. In kind it is biochemical. As for the experimental part:
as §1, §2, §3, §4

Test [1] has as its system phospho AKT (ser473) in MDA-MB-468 cells. Briefly: Detection of phospho AKT (ser473) in MDA-MB-468 cells. In kind it is cell-based. The following applies: Homo sapiens, Test (b), 2 hours incubation, approximate value, read-out: IC50 versus cellular phospho AKT (ser473) in MDA-MB-468 cells. As for the experimental part:
(b) Protocol for Detection of Phospho AKT (ser473) in MDA-MB-468 Cells
MDA-MB-468 cells (human breast adenocarcinoma ATCC HTB 132) are seeded into Greiner 384 well black flat-bottomed plates by automated cell culture robot (Selec T). Cells can also be maintained manually and seeded into plates using multidrop or Wellmate. Cells seeded at 1500 cell/well in 40 μl of DMEN containing 10% FCS and 1% glutamine. Cell plates are incubated for 18 hours in a 37° C. incubator.
Compounds are dosed onto cells using an Echo acoustic dispenser, which dispenses nl quantities of compound or DMSO. Compounds are dosed in a 12 point concentration range from 30 μM top dose, 28 compounds are dosed on one plate. There are 17 DMSO only positive control wells per plate, and 16 negative control well which have been dosed with a concentration of reference compound that will knockout the pAKT signal.
Plates are incubated at 37° C. for 2 hours, cells are the fixed by the addition of 10 μl of a 3.7% Formaldehyde solution in a fume cupboard using a Wellmate.
After 30 min to allow for fixation, the fixative and media are removed and the plates washed with Proclin PBS/A using Tecan PW384 plate washer in a fume cupboard. Wells are blocked and permeabilised with the addition of 40 μl of PBS containing 0.5% Tween20 and 1% marvel using a Wellmate and incubated for 60 min at room temperature.
Permeabilisation and blocking buffer removed using Tecan PW384 plate washer, then 20 μl primary antibody solution added using a Wellmate. The primary antibody solution is a 1:500 dilution of Rabbit anti-phospho AKT Ser 473 (Cell signalling technologies catalogue number #3787) in PBS/T containing 1% marvel (dried milk powder) and incubated overnight at 4° C.
Plates are washed using a Tecan PW384 plate washer three times with Phosphate Buffered Saline+0.05% (v/v) Polysorbate20 and Proclin300 (Supelco). 20 μl of secondary antibody solution is then added to each well using a Wellmate and incubated for 1 hour at Room Temp. The secondary antibody solution is a 1:1000 dilution of Alexa Fluor 488 anti-Rabbit (Molecular Probes cat no A11008) diluted in Phosphate Buffered Saline+0.05% (v/v) Polysorbate20 containing 1% marvel. Plates are washed three times as before then […] added to each well and plates sealed with black plate sealer.
The plates are read on an Acumen reader as soon as possible. Using this system IC50 values can be generated and quality of plates determined by control wells. Reference compounds are run each time to monitor assay performance.

The mark [2] stands for this setting: human recombinant enzyme, Table A, read-out: PI3Kδ inhibition, IC50.
[3] abbreviates: Test (a), approximate value, read-out: IC50 versus PI3Kβ.
[4] abbreviates: Test (a), human recombinant enzyme, ATP 8 μM, PIP2 80 μM, Table A, read-out: PI3Kβ inhibition, IC50.
Where [5] appears, read: approximate value, read-out: IC50 versus PI3Kδ.

Read-outs that look alike come from different tables or passages of the source.

The IC50 is the concentration that gives 50% inhibition.

Sequence of PI3Kβ (P42338 whole entry): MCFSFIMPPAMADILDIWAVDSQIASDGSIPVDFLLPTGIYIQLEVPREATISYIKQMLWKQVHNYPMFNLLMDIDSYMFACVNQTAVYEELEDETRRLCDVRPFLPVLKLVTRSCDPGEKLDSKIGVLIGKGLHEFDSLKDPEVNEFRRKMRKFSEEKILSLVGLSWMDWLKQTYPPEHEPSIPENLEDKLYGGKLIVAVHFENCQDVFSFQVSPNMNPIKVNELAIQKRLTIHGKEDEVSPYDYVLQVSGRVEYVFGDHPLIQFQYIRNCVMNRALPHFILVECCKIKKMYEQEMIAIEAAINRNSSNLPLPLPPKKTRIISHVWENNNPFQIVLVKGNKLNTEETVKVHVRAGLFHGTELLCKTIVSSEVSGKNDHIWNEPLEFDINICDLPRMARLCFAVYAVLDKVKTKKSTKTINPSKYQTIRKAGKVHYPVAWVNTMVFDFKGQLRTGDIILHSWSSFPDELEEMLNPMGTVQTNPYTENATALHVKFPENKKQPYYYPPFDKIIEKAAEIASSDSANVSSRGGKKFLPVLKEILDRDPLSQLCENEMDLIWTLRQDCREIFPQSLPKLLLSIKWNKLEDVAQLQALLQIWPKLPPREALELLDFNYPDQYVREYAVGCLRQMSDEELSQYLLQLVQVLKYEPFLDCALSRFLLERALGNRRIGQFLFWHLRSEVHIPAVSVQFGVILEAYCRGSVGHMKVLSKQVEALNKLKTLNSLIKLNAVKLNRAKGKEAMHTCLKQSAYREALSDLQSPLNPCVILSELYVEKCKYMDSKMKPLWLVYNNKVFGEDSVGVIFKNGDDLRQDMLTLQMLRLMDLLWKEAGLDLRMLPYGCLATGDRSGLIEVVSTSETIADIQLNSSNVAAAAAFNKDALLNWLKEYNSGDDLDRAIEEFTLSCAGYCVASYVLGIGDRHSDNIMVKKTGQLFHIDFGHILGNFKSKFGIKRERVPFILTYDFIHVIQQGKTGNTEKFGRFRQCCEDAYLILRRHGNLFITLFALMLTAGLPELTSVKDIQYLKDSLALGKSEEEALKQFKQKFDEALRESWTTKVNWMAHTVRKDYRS
Sequence of PI3Kβ (P27986 whole entry partner): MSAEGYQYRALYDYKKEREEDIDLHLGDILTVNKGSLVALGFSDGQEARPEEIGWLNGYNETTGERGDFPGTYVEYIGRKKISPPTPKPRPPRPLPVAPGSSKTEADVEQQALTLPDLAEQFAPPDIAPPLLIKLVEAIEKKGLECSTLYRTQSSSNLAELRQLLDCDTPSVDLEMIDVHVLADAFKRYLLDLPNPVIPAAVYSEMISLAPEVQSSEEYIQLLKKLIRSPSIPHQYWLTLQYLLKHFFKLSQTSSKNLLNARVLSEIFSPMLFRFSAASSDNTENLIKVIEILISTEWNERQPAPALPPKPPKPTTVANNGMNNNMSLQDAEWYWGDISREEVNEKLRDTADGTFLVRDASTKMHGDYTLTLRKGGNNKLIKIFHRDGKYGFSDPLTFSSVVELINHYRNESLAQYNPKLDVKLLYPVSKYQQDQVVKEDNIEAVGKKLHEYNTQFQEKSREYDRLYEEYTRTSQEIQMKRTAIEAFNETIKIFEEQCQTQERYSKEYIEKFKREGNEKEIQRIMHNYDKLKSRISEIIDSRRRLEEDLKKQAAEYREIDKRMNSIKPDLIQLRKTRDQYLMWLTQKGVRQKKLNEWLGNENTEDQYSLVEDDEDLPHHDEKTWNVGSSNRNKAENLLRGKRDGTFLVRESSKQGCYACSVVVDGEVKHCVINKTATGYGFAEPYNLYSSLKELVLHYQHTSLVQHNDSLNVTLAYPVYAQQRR
Sequence of PI3Kδ (O00329 whole entry): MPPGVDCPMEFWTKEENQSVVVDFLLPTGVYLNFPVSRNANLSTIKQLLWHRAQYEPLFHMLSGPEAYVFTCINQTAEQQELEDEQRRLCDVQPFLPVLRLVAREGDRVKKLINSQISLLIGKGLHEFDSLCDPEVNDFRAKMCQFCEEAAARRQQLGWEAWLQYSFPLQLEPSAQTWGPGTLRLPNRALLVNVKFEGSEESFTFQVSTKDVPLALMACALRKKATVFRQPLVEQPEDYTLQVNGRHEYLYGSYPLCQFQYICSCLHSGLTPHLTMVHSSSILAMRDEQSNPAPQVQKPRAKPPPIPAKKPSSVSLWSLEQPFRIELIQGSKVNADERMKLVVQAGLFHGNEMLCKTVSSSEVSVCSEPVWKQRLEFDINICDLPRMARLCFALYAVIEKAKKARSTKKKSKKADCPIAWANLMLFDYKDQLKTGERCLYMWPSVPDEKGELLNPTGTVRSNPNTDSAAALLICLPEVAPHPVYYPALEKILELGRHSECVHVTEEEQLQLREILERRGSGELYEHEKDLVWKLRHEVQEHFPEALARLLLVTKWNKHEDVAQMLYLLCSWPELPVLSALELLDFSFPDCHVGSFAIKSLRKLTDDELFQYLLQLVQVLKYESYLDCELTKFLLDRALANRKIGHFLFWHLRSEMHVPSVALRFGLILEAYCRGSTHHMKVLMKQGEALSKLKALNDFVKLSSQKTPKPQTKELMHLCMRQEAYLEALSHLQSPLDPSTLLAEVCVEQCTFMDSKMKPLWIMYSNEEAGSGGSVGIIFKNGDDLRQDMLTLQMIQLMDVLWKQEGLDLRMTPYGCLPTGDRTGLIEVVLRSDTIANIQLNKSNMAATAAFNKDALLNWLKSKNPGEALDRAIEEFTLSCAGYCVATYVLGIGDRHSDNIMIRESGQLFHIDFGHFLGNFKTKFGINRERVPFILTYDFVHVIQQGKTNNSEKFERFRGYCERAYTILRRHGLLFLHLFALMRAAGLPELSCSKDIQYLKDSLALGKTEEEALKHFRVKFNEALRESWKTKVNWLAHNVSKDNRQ
Sequence of PI3Kδ (P27986 whole entry partner): as the sequence (P27986 whole entry partner) above

For the molecule `O=C(c1cc(C2CCCN2c2cc(F)cc(F)c2)c2oc(N3CCOCC3)cc(=O)c2c1)N1CCC(O)CC1` (stereo not shown) [Example 1.02, 8-(1-(3,5-difluorophenyl)pyrrolidin-2-yl)-6-(4-hydroxypiperidine-1-carbonyl)-2-morpholino-4H-chromen-4-one], the IC50 at PI3Kδ (setting [2]) was 14 nM.

Turning to `C[C@@H]1CN(c2cc(=O)c3cc(C(=O)N(C)C)cc(C4CCCN4c4cccc(F)c4)c3o2)CCO1` (stereo partly drawn) [Example 3.03, 8-(1-(3-fluorophenyl)pyrrolidin-2-yl)-N,N-dimethyl-2-((R)-2-methylmorpholino)-4-oxo-4H-chromene-6-carboxamide], the IC50 on PI3Kβ (setting [3]) was about 10 nM; at PI3Kβ (setting [4]) it was 10 nM; on PI3Kδ (setting [5]), about 7 nM; on PI3Kδ (setting [2]), 7 nM; in test [1], about 1 nM.

For the molecule `CN(C)C(=O)c1cc(C2CCCN2c2cc(F)cc(C#N)c2)c2oc(N3CCOCC3)cc(=O)c2c1` (stereo not shown) [Example 2.02, 8-(1-(3-cyano-5-fluorophenyl)pyrrolidin-2-yl)-N,N-dimethyl-2-morpholino-4-oxo-4H-chromene-6-carboxamide], the concentration for half-maximal inhibition (IC50) worked out at 13 nM at PI3Kβ (setting [4]) and 16 nM at PI3Kδ (setting [2]).

With `O=C(c1cc([C@H]2CCCN2c2cc(F)cc(F)c2)c2oc(N3CCOCC3)cc(=O)c2c1)N1CCC1` [Example 1.05, 6-(azetidine-1-carbonyl)-8-[(2R)-(1-(3,5-difluorophenyl)pyrrolidin-2-yl)]-2-morpholino-4H-chromen-4-one], the half-inhibitory concentration (IC50) is about 7 nM on PI3Kβ (setting [3]); 7 nM at PI3Kβ (setting [4]); about 9 nM on PI3Kδ (setting [5]); 9 nM on PI3Kδ (setting [2]); about 1 nM in test [1].

As to `O=C(c1cc([C@H]2CCCN2c2cccc(F)c2)c2oc(N3CCOCC3)cc(=O)c2c1)N1CCOCC1` [Example 1.07, 8-[(2R)-(1-(3-fluorophenyl)pyrrolidin-2-yl)]-6-(morpholine-4-carbonyl)-2-morpholino-4H-chromen-4-one], the IC50 against PI3Kβ (IC50 versus PI3Kβ) was about 6 nM; on PI3Kβ (setting [4]) it was 6 nM; on PI3Kδ (setting [5]), about 5 nM; at PI3Kδ (setting [2]) it was 5 nM; in test [1] it was about 2 nM.

For `C[C@@H]1CN(c2cc(=O)c3cc(C(=O)N4CCOCC4)cc(C4CCCN4c4ccccc4)c3o2)CCO1` (stereo partly drawn) [Example 3.01, 2-((R)-2-methylmorpholino)-6-(morpholine-4-carbonyl)-8-(1-phenylpyrrolidin-2-yl)-4H-chromen-4-one], the IC50 was 14 nM at PI3Kβ (setting [4]), 15 nM at PI3Kδ (setting [2]) and about 6 nM in test [1].

On to `CN(C)C(=O)c1cc(C2CCCN2c2cc(F)cc(F)c2)c2oc(N3CCOCC3)cc(=O)c2c1` (stereo not shown) [Example 1.00, 8-[1-(3,5-difluorophenyl)pyrrolidin-2-yl]-N,N-dimethyl-2-morpholino-4-oxo-4H-chromene-6-carboxamide], for which the 50% inhibitory concentration (IC50) on PI3Kδ (setting [2]) was determined as 15 nM.

Take `CN1CCN(C(=O)c2cc([C@H]3CCCN3c3cccc(F)c3)c3oc(N4CCOCC4)cc(=O)c3c2)CC1` [Example 1.10, 8-[(2R)-(1-(3-fluorophenyl)pyrrolidin-2-yl)]-6-(4-methylpiperazine-1-carbonyl)-2-morpholino-4H-chromen-4-one]: the IC50 on PI3Kβ (setting [3]) is about 8 nM; on PI3Kβ (setting [4]), 8 nM; on PI3Kδ (setting [5]), about 21 nM; on PI3Kδ (setting [2]), 21 nM; in test [1], about 4 nM.

With `O=C(c1cc(C2CCCN2c2ccc(F)cc2)c2oc(N3CCOCC3)cc(=O)c2c1)N1CCOCC1` (racemic) [Example 1.12, 8-(1-(4-fluorophenyl)pyrrolidin-2-yl)-6-(morpholine-4-carbonyl)-2-morpholino-4H-chromen-4-one], the IC50 stood at 15 nM at PI3Kβ (setting [4]) and 32 nM on PI3Kδ (setting [2]).

For `C[C@@H]1CN(c2cc(=O)c3cc(C(=O)N4CCOCC4)cc(C4CCCN4c4cc(F)cc(F)c4)c3o2)CCO1` (stereo partly drawn) [Example 3.00, 8-(1-(3,5-difluorophenyl)pyrrolidin-2-yl)-2-((R)-2-methylmorpholino)-6-(morpholine-4-carbonyl)-4H-chromen-4-one], the half-maximal inhibitory concentration (IC50) was about 11 nM on PI3Kβ (setting [3]); 11 nM at PI3Kβ (setting [4]); about 18 nM on PI3Kδ (setting [5]); 18 nM on PI3Kδ (setting [2]); about 3 nM in test [1].

`COc1cccc(N2CCCC2c2cc(C(=O)N(C)C)cc3c(=O)cc(N4CCOCC4)oc23)c1` (stereo not shown) [Example 2.01, 8-(1-(3-methoxyphenyl)pyrrolidin-2-yl)-N,N-dimethyl-2-morpholino-4-oxo-4H-chromene-6-carboxamide]: the half-maximal inhibitory concentration (IC50) on PI3Kβ (setting [4]) worked out at 10 nM; at PI3Kδ (setting [2]) it was 15 nM.

Regarding `CN(CCO)C(=O)c1cc(C2CCCN2c2cc(F)cc(F)c2)c2oc(N3CCOCC3)cc(=O)c2c1` (stereo not shown) [Example 1.01, 8-(1-(3,5-difluorophenyl)pyrrolidin-2-yl)-N-(2-hydroxyethyl)-N-methyl-2-morpholino-4-oxo-4H-chromene-6-carboxamide], the IC50 at PI3Kδ (setting [2]) came to 16 nM.

On to `CN1CCN(C(=O)c2cc([C@H]3CCCN3c3cc(F)cc(F)c3)c3oc(N4CCOCC4)cc(=O)c3c2)CC1` [Example 1.09, 8-[(2R)-(1-(3,5-difluorophenyl)pyrrolidin-2-yl)]-6-(4-methylpiperazine-1-carbonyl)-2-morpholino-4H-chromen-4-one], for which the half-maximal inhibitory concentration (IC50) at PI3Kδ (setting [2]) worked out at 14 nM.

Take `CN(C)C(=O)c1cc([C@H]2CCCN2c2cccc(F)c2)c2oc(N3CCOCC3)cc(=O)c2c1` [Example 1.06, 8-[(2R)-(1-(3-fluorophenyl)pyrrolidin-2-yl)]-N,N-dimethyl-2-morpholino-4-oxo-4H-chromene-6-carboxamide]: the IC50 is about 7 nM at PI3Kβ (setting [3]); 7 nM at PI3Kβ (setting [4]); about 7 nM at PI3Kδ (setting [5]); 7 nM at PI3Kδ (setting [2]); about 1 nM in test [1].

As to `O=C(c1cc(C2CCCN2c2cc(F)cc(F)c2)c2oc(N3CCOCC3)cc(=O)c2c1)N1CC[S+]([O-])CC1` (stereo not shown) [Example 1.04, 8-[1-(3,5-difluorophenyl)pyrrolidin-2-yl]-2-morpholino-6-[(1-oxidothiomorpholin-4-yl)carbonyl]-4H-chromen-4-one], the half-maximal inhibitory concentration (IC50) is about 11 nM at PI3Kβ (setting [3]); 11 nM on PI3Kβ (setting [4]); about 24 nM on PI3Kδ (setting [5]); 24 nM at PI3Kδ (setting [2]); about 5 nM in test [1].

In the case of `C[C@@H]1CN(c2cc(=O)c3cc(C(=O)N4CCOCC4)cc(C4CCCN4c4cccc(F)c4)c3o2)CCO1` (stereo partly drawn) [Example 3.02, 8-(1-(3-fluorophenyl)pyrrolidin-2-yl)-2-((R)-2-methylmorpholino)-6-(morpholine-4-carbonyl)-4H-chromen-4-one], the IC50 on PI3Kβ (setting [3]) is about 14 nM; on PI3Kβ (setting [4]) it was 14 nM; at PI3Kδ (setting [5]), about 10 nM; at PI3Kδ (setting [2]), 10 nM; in test [1], about 3 nM.

In the case of `CN(C)C(=O)c1cc(C2CCCN2c2ccc(F)cc2)c2oc(N3CCOCC3)cc(=O)c2c1` (racemic) [Example 2.04, 8-(1-(4-fluorophenyl)pyrrolidin-2-yl)-N,N-dimethyl-2-morpholino-4-oxo-4H-chromene-6-carboxamide], the IC50 on PI3Kβ (setting [4]) turned out to be 17 nM; at PI3Kδ (setting [2]) it was 19 nM.
